Reference: publication PMC4577729, “7-(Pyrazol-4-yl)-3H-imidazo[4,5-b]pyridine-based derivatives for kinase inhibition: Co-crystallisation studies with Aurora-A reveal distinct differences in the orientation of the pyrazole N1-substituent” (Bioorganic & Medicinal Chemistry Letters, 2015)

Tests used:
[1] = test system: HCT116 human colon carcinoma cells; test: HCT116 cell growth inhibition; format: cell-based; conditions: 72 h incubation
Description: (§1) As part of our medicinal chemistry programme to discover selective inhibitors of Aurora-A,[12] we introduced the 1-benzyl-1H-pyrazol-4-yl moiety at C7 of the imidazo[4,5-b]pyridine scaffold to provide 7a (Table 1). We previously reported 1,3-dimethyl-1H-pyrazol-4-yl as a preferred substituent at the C2 position of the imidazo[4,5-b]pyridine scaffold[11] and this moiety was therefore incorporated into the design of 7a and analogues presented in this study. […] This in vitro profile prompted us to investigate this C7-pyrazole substituted imidazo[4,5-b]pyridine subseries in more detail. Firstly, we attempted to increase biochemical potency against Aurora-A, and also to improve microsomal stability.

Aurora B [2] = target: T1, Aurora B (Homo sapiens, UniProt Q96GD4); test: Histone H3 phosphorylation at S10 in HeLa cells; format: cell-based; conditions: read-out: p-HH3 IC50 (histone H3 phosphorylation at S10)
T1 sequence (Q96GD4 whole entry): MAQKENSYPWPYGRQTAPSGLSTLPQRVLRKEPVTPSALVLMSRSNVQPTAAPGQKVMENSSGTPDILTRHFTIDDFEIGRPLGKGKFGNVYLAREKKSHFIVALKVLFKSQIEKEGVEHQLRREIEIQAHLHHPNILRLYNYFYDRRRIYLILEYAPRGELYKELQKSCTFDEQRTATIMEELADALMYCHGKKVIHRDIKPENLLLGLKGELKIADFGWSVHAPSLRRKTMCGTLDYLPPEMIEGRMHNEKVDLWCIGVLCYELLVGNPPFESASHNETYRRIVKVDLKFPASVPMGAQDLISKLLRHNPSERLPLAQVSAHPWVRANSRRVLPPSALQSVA
Description: as §1

Aurora A [3] = target: T2, Aurora A (Homo sapiens, UniProt O14965); test: Aurora-A microfluidic kinase assay; format: biochemical; conditions: biochemical; mean of two determinations or mean ±SD for n > 2
T2 sequence (O14965 1-403): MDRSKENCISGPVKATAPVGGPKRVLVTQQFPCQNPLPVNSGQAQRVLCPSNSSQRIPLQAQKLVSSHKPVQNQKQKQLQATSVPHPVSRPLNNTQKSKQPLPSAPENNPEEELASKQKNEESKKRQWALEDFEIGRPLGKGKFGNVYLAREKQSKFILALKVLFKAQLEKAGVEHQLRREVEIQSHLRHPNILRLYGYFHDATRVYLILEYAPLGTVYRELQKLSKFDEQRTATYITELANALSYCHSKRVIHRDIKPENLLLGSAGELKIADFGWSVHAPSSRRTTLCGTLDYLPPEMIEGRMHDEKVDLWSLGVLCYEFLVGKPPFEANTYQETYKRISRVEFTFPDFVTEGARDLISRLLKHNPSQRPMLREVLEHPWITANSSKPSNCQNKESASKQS
Description: as §1
[17] Aurora-A and Aurora-B IC50 values were determined by using a microfluidic assay which monitors the separation of a phosphorylated product from its substrate, as described in Ref. [12].

[4] = Protein binding in microsomal incubations (HLM); format: in vitro ADME, human
Protocol: (§2) For a better understanding of the microsomal stability data, the protein binding for 7a, 7d and 7e in microsomal incubations was measured. The percentage of 7a unbound in MLM and HLM was determined as 6.71 and 4.89, respectively. Compounds 7d and 7e were more highly bound: for 7d the percentage unbound was 0.50 in both MLM and HLM and for 7e was 0.16 and 0.10, respectively. […] The potent cell-based activity prompted us to investigate kinome selectivity profiles for this class of compound by screening 7a and 7d in a 102-kinase panel at a concentration of 1 μM.[20] […] The Gini coefficient for compound 3 was reported as 0.719,[12] and the corresponding value for compound 1 is 0.560. To understand the potential for further improvement, we obtained the crystal structure of 7a bound to Aurora-A[22] (Fig. 3, Table S3, Supplementary data). […] Similar to crystal structures of previous compounds 1, 15 and 16 (Figs. 1 and 2; compounds 51 and 40c in Ref. [10], and compound 21a in Ref. [11], respectively) the N-benzyl substituent on the C7-pyrazole is oriented towards the P-loop, making Van der Waals contacts with Val147 and Gly142 (Fig. 3).

[5] = In vivo mouse pharmacokinetic profiling
Protocol: (§3) The mouse plasma protein binding for 7a and 7d was determined as 99.48% and >99.9%, respectively. […] In an attempt to improve the aqueous solubility, the Aurora inhibitory potency and kinase selectivity of this sub-series, we explored the introduction of basic substituents such as 1-methylpiperazine and pyrrolidine as well as replacement of the phenyl ring with a more polar heterocycle. […] It was anticipated that the introduction of small substituents on the phenyl ring in 7a would be well tolerated without altering its orientation in the kinase active site. Alternatively, we envisaged that Thr217 in Aurora-A may be accessed via an appropriate pyrazole N1-benzyl derivatisation such as a bulky amido substituent, which would form a favourable hydrogen bond interaction with the side chain hydroxyl of Thr217. Similar approaches were previously applied by us in the design of selective inhibitors of Aurora-A.[12,16]

Aurora A [6] = target: T2, Aurora A; test: Aurora-A autophosphorylation at T288 in HeLa cells; format: cell-based; conditions: read-out: p-T288 IC50 (Aurora-A autophosphorylation)
Description: as §1

Kinetic solubility = format: physicochemical; conditions: phosphate buffer, pH = 6.8
Protocol: as §3
[23] Solubility measurements were performed by Pharmorphix® Solid State Services, Member of the Sigma–Aldrich Group, Cambridge, UK.

[7] = Protein binding in microsomal incubations (MLM); format: in vitro ADME, mouse
Protocol: as §2

[8] = Mouse plasma protein binding; format: in vitro ADME
Protocol: as §3

CLK2 = CLK2 (Homo sapiens, UniProt P49760); test: Kinase selectivity profiling; format: biochemical; conditions: 1 µM, assay duplicates
Sequence of CLK2 (P49760 whole entry): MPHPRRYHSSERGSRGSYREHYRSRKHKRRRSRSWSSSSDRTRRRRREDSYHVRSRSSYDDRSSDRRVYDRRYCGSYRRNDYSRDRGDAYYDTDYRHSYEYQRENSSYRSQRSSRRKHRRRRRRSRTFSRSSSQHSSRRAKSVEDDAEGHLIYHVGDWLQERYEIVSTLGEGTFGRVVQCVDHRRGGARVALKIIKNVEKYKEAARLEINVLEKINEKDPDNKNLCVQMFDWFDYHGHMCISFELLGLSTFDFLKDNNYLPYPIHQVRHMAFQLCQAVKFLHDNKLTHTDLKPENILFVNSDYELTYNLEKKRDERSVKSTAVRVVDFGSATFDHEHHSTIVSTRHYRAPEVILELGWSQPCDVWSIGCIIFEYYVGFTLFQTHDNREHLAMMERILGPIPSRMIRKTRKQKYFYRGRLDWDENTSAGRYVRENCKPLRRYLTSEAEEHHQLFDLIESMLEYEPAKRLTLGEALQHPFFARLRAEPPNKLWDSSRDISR
Protocol: (§4) [20] Kinase selectivity profiling for compounds 7a, 7d, 14d and 14g was carried out at the International Centre for Protein Kinase Profiling, Division of Signal Transduction Therapy, University of Dundee.
(§5) Table S2: Kinase selectivity profiling of compounds 14d and 14g in a 105-kinase panel screened at a concentration of 1 µM.

DAPK1 = DAPK1 (Homo sapiens, UniProt P53355); test: Kinase selectivity profiling; format: biochemical; conditions: 1 µM, assay duplicates
Sequence of DAPK1 (P53355 whole entry): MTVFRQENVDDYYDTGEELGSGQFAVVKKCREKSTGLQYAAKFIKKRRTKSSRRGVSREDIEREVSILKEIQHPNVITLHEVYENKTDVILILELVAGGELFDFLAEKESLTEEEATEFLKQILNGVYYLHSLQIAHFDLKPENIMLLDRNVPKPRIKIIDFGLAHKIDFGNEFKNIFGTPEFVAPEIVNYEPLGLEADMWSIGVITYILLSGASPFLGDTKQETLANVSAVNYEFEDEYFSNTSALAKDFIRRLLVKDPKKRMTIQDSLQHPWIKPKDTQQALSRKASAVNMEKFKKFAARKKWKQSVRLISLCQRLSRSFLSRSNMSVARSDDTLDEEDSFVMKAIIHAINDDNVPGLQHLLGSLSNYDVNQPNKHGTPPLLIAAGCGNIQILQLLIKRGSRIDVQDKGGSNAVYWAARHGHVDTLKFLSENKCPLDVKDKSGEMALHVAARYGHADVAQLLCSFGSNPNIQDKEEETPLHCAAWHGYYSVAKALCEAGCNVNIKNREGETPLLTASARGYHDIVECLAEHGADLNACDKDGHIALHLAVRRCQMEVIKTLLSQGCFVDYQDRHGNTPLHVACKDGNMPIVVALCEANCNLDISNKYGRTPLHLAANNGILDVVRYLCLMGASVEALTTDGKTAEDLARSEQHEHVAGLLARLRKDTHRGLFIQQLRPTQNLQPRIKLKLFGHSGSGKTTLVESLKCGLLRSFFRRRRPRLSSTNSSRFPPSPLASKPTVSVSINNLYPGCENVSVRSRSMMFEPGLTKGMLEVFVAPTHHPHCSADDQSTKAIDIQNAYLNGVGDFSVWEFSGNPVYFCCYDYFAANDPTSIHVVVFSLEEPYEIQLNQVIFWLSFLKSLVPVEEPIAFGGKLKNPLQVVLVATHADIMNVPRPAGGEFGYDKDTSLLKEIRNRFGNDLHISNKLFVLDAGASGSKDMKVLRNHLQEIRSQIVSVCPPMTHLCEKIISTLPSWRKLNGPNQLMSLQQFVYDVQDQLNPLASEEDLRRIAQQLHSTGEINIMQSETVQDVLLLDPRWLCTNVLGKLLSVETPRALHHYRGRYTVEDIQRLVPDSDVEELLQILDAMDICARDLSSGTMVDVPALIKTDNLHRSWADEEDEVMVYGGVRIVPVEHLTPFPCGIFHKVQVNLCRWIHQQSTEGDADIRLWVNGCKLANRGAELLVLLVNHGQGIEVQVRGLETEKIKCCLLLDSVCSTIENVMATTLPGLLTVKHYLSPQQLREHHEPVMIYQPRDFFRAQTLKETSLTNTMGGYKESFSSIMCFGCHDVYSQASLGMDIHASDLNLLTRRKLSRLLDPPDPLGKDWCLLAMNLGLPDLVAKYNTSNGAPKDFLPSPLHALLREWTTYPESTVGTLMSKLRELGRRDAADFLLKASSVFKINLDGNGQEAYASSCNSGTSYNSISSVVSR
Protocol: as §4, §5

EPH-B2 = EPH-B2 (Homo sapiens, UniProt P29323); test: Kinase selectivity profiling; format: biochemical; conditions: 1 µM, assay duplicates
Sequence of EPH-B2 (P29323 19-1055): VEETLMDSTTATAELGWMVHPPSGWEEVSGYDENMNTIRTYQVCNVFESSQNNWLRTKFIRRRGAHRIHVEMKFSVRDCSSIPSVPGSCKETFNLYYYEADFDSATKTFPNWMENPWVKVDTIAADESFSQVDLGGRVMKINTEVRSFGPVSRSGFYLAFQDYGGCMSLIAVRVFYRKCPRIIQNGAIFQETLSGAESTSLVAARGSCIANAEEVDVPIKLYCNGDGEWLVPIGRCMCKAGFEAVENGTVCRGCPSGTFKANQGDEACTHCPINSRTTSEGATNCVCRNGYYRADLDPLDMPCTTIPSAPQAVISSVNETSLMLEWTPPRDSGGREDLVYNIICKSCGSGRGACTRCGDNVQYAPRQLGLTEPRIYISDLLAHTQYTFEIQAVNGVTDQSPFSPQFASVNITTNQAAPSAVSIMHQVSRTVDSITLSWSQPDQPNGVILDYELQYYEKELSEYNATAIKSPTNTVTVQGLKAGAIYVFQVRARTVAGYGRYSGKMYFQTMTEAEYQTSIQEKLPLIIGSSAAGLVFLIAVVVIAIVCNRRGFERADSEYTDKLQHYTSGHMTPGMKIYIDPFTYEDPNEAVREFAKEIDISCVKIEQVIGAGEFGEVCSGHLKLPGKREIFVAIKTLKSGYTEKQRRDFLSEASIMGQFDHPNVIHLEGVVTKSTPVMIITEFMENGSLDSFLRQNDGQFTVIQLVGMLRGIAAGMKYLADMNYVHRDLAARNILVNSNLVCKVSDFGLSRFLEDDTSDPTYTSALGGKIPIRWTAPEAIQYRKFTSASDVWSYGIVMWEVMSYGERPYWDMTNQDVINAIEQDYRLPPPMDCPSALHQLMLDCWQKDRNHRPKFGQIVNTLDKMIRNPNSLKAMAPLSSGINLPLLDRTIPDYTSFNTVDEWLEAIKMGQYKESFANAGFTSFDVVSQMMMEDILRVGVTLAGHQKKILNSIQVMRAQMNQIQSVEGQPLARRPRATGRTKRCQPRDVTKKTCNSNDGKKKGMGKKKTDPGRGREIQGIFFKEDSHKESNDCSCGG
Protocol: as §4, §5

Aurora B [9] = target: T1, Aurora B; test: Kinase selectivity profiling; format: biochemical; conditions: 1 µM, assay duplicates
Procedure, shortened: (§6)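 Each compound was tested at a single concentration of 1 µM within a broad panel of 102 or 105 protein kinases run by an external profiling centre.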

EPH-B4 = EPH-B4 (Homo sapiens, UniProt P54760); test: Kinase selectivity profiling; format: biochemical; conditions: 1 µM, assay duplicates
Sequence of EPH-B4 (P54760 16-987): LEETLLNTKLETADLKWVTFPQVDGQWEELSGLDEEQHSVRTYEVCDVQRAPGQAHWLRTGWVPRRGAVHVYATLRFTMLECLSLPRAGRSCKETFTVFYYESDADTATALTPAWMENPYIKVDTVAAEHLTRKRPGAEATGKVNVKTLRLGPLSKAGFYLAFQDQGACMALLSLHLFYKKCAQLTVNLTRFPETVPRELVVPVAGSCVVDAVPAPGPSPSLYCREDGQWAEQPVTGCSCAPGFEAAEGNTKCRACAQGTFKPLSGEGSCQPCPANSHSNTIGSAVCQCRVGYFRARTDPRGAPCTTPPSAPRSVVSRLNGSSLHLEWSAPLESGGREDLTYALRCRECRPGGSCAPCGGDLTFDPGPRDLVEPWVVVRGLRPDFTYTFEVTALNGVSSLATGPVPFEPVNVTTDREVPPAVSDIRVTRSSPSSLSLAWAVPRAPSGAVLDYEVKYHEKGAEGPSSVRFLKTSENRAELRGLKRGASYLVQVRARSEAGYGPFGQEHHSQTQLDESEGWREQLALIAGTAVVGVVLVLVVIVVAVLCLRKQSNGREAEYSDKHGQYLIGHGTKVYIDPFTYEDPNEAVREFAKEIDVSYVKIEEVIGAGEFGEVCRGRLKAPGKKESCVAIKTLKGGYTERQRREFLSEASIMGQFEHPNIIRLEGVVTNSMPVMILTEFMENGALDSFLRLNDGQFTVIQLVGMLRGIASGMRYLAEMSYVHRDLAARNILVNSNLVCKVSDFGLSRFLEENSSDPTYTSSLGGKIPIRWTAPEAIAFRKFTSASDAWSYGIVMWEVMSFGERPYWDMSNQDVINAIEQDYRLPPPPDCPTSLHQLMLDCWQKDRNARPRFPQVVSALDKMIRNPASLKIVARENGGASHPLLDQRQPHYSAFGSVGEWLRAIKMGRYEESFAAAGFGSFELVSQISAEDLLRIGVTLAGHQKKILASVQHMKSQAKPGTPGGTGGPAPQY
Procedure, shortened: as §6

Structure (SMILES) | GI50 [1] [nM] | IC50 (Aurora B [2]) [nM] | IC50 (Aurora A [3]) [nM] | percentage unbound in HLM [4] [%] | oral bioavailability [5] [%] | IC50 (Aurora A [6]) [nM] | kinetic solubility (Kinetic solubility) [µg/mL] | percentage unbound in MLM [7] [%] | mouse plasma protein binding [8] [%] | CLK2 % activity remaining (CLK2) [%] | DAPK1 % activity remaining (DAPK1) [%] | EPH-B2 % activity remaining (EPH-B2) [%] | Aurora B % activity remaining (Aurora B [9]) [%] | EPH-B4 % activity remaining (EPH-B4) [%]
Cc1nn(C)cc1-c1nc2c(-c3cnn(Cc4ccccc4)c3)c(Cl)cnc2[nH]1 [Compound 7a] | 150 | 223 | 212 ± 107 | 4.89 | 13 | 87 | < 0.1 | 6.71 | 99.48 |  |  |  |  | 
Cc1cc(Cn2cc(-c3c(Cl)cnc4[nH]c(-c5cn(C)nc5C)nc34)cn2)no1 [Compound 14d] | 340 |  | 35 |  |  |  |  |  |  | 2 | 24 | 60 | 8 | 86
